Experimental data as given in ChEMBL document CHEMBL1921674, “Novel tricyclic inhibitors of IKK2: discovery and SAR leading to the identification of 2-methoxy-N-((6-(1-methyl-4-(methylamino)-1,6-dihydroimidazo[4,5-d]pyrrolo[2,3-b]pyridin-7-yl)pyridin-2-yl)methyl)acetamide (BMS-066)” (Bioorg Med Chem Lett, 2011).

What was measured:
[1] = tested on: Blood; assay: Antiinflammatory activity in human whole blood assessed as inhibition of LPS-induced TNFalpha release treated for 45 mins before LPS challenge measured after 6 hrs by ELISA; format: functional, tissue-based
[2] = molecular target: T1, Inhibitor of nuclear factor kappa-B kinase subunit beta (Homo sapiens, UniProt O14920); assay: Inhibition of human IKK2-mediated GST-IkappaBalpha protein fusion phosphorylation
T1 sequence (O14920 whole entry): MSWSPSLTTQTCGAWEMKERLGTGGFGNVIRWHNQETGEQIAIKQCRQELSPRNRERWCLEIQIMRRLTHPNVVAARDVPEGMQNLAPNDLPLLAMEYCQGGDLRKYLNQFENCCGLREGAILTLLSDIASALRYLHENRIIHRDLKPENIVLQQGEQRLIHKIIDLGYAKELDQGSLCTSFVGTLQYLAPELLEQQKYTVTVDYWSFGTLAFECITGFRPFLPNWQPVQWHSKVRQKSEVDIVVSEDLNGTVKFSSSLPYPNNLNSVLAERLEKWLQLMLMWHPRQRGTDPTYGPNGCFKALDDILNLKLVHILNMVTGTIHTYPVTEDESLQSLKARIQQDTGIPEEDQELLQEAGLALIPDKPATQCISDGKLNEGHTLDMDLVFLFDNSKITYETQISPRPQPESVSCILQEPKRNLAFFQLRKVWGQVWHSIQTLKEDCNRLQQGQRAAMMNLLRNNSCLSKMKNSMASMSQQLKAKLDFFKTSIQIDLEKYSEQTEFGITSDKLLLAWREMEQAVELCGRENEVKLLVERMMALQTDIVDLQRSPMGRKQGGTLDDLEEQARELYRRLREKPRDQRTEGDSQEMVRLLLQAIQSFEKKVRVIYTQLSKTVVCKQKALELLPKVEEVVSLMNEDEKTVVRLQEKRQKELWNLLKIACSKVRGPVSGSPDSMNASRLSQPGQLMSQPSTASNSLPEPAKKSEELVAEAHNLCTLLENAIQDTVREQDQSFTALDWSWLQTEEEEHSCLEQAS

[3] = tested on: PBMC; assay: Antiinflammatory activity in human PBMC assessed as inhibition of LPS-induced TNFalpha release treated for 5 mins before LPS challenge measured after 4 hrs by ELISA; format: functional, cell-based
[4] = Cmax in Lewis rat at 30 mg/kg, po; format: ADME, organism-based; set-up: dose 30 mg/kg, route oral; conditions: in vivo
[5] = AUC in Lewis rat at 30 mg/kg, po; format: ADME, organism-based; set-up: dose 30 mg/kg, route oral; conditions: plasma

Row | IC50 ([1]; Homo sapiens, Blood) [nM] | IC50 [2] [nM] | Cmax [4] [µM] | AUC [5] [µM·h] | IC50 [1] [nM] | SMILES | IC50 ([3]; Homo sapiens, PBMC) [nM] | IC50 ([3]; pbmc) [nM]
1 | > 25000 | 128 |  |  |  | CNc1nc2[nH]c(-c3cccc(N4CCN(C)CC4)n3)cc2c2c1ncn2C | 1500 | 
2 | 5200 | 28 |  |  |  | CNc1nc2[nH]c(-c3cccc(CNC(=O)c4csnn4)n3)cc2c2c1ncn2C | 230 | 
3 | 15000 | 26 |  |  |  | CNc1nc2[nH]c(-c3cccc(CNC(=O)CC(C)C)n3)cc2c2c1ncn2C | 390 | 
4 |  | 330 |  |  |  | CNc1nc2[nH]c(-c3cc(CNC(C)=O)ccn3)cc2c2c1ncn2C |  | 
5 | 7000 | 81 |  |  |  | CNc1nc2[nH]c(-c3cccc(C4(NC(C)=O)CC4)n3)cc2c2c1ncn2C | 400 | 
6 | 5900 | 23 |  |  |  | CNc1nc2[nH]c(-c3cccc(CNC(=O)c4cnccn4)n3)cc2c2c1ncn2C | 290 | 
7 | 17000 | 86 |  |  |  | CNCC(=O)NCc1cccc(-c2cc3c(nc(NC)c4ncn(C)c43)[nH]2)n1 | 130 | 
8 |  | 41 |  |  |  | CNc1nc2[nH]c(-c3cccc(CNC(=O)C4(C)CC4)n3)cc2c2c1ncn2C | 570 | 
9 | 1700 | 5.7 |  |  |  | CNC(=O)N(C)Cc1cccc(-c2cc3c(nc(NC)c4ncn(C)c43)[nH]2)n1 | 350 | 
10 | 3300 | 12 |  |  |  | CNc1nc2[nH]c(-c3cccc(CNC(=O)CCOC)n3)cc2c2c1ncn2C | 280 | 
11 | 6400 | 20 |  |  |  | CNc1nc2[nH]c(-c3cccc(NCCOC)n3)cc2c2c1ncn2C | 350 | 
12 |  | 14 |  |  |  | CNc1nc2[nH]c(-c3cccc(CNC(C)=O)c3)cc2c2c1ncn2C |  | 
13 | 1800 | 5 |  |  |  | CNc1nc2[nH]c(-c3cccc(CNC(=O)CCN(C)C)n3)cc2c2c1ncn2C | 220 | 
14 | 7000 | 13 | 7.8 | 39 |  | CNc1nc2[nH]c(-c3cccc(CNC(=O)CCOC)c3)cc2c2c1ncn2C |  | 
15 | 5900 | 33 |  |  |  | CNc1nc2[nH]c(-c3cccc(CNC(=O)C4CC4)n3)cc2c2c1ncn2C | 280 | 
16 | 1600 | 19 |  |  |  | CNc1nc2[nH]c(-c3cccc(CNC(C)=O)n3)cc2c2c1ncn2C | 160 | 
17 | 1700 | 16 |  |  |  | CNc1nc2[nH]c(-c3cccc(C(C)NC(C)=O)n3)cc2c2c1ncn2C (single isomer, unassigned) |  | 680
18 |  | 9 |  |  | 1600 | CNc1nc2[nH]c(-c3cccc(C(C)NC(C)=O)n3)cc2c2c1ncn2C (single isomer, unassigned; enantiomer 2) |  | 300
19 | 3000 | 14 |  |  |  | CNc1nc2[nH]c(-c3cccc(CN(C)C(C)=O)n3)cc2c2c1ncn2C | 230 | 
20 |  | 130 |  |  |  | CNc1nc2[nH]c(-c3cccc(NC(C)=O)n3)cc2c2c1ncn2C | 1900 | 
21 | 6100 | 44 |  |  |  | CCC(=O)NCc1cccc(-c2cc3c(nc(NC)c4ncn(C)c43)[nH]2)n1 | 700 | 
22 | 1800 | 13 |  |  |  | CNc1nc2[nH]c(-c3cccc(CNC(=O)CO)n3)cc2c2c1ncn2C | 530 | 
23 | 3400 | 12 |  |  |  | CNc1nc2[nH]c(-c3cccc(CNC(=O)C(C)(C)O)n3)cc2c2c1ncn2C | 240 | 
24 | 3300 | 19 |  |  |  | CNc1nc2[nH]c(-c3cccc(CN(C)C(=O)COC)n3)cc2c2c1ncn2C | 350 | 
25 | 3500 |  |  |  |  | CCNc1nc2sc(-c3cccc([C@H](C)NC(C)=O)c3)nc2c2c1ncn2C |  | 
26 | > 25000 | 438 |  |  |  | CNc1nc2[nH]c(-c3cccc(N(C)CCOC)n3)cc2c2c1ncn2C | 1900 | 
27 | 5500 | 66 |  |  |  | CNc1nc2[nH]c(-c3cccc(CNC(=O)C(C)(C)C)n3)cc2c2c1ncn2C | 310 | 
